Assay results as given in patent US10807959B2, “WDR5-MLL1 inhibitors and modulators” (Vanderbilt University, priority 2018, dated 2020).

Key:
WDR5 [1] = target: T1, WDR5 (Homo sapiens (Human), UniProt P61964); test: Fluorescence polarization anisotropy (FPA) competition assay, displacement of FITC-MLL or 10mer-Thr-FAM peptide; format: binding
From the text: The assay is run in 384-well format and is read on a BioTek Cytation. […] Replicate values are fit to a 4-parameter fit in XLFit to generate a single IC50 value for each compound that is then converted to a Ki value. Experiments are repeated to generate a 2nd, independent Ki value; values from the two experiments are averaged to produce the reported Ki value for the compound.

WDR5 [2] = target: T1, WDR5; test: TR-FRET binding assay, displacement of 10mer-Thr-FAM probe from His-tagged WDR5
Description: The LanthaScreenTM Elite Tb-anti-HIS Antibody from ThermoFisher Scientific was used for this purpose. […] The ratio of the 520 and 495 signals are then utilized to generate a dose-response curve to calculate an IC50 value. […] WDR[…] tag protein is used at 2 nM.

[3] = Inhibition of WDR5 by FPA assay
[4] = Inhibition of WDR5 by TR-FRET assay

Row | Compound | Ki (WDR5 [2]; [4]) | Ki (WDR5 [2]) | further results
1 | 3-(((4,5-dihydro-1H-imidazol-2-yl)amino)methyl)-N-(3,5-dimethoxybenzyl)-4,5-difluorobenzamide [Example B30] |  |  | Ki (WDR5 [1]; Table B2, WDR5 WIN-site binding affinity, values not less than 1 nM (FPA)): 5.32 nM
2 | O=C(NC(C1CC1)C1CC1)c1cc(CNC2=NCCN2)cc(-c2ccc(F)cc2Cl)c1 [Example 2, 2′-Chloro-N-(dicyclopropylmethyl)-5-(((4,5-dihydro-1H-imidazol-2-yl)amino)methyl)-4′-fluoro-[1,1′-biphenyl]-3-carboxamide] |  |  | Ki (WDR5 [1]; [3]): 6 nM
3 | COc1cc(CNC(=O)c2cc(CNC3=NCCN3)cc(-c3ccc(F)cc3Cl)c2)cc(OC)c1 [Example 3, 2′-chloro-5-(((4,5-dihydro-1H-imidazol-2-yl)amino)methyl)-N-(3,5-dimethoxybenzyl)-4′-fluoro-[1,1′-biphenyl]-3-carboxamide] |  |  | Ki (WDR5 [1]; [3]): 2.7 nM
4 | CCn1cc(-c2cc(CNC(=N)CC3CC3)cc(C(=O)N[C@H](c3ccc(F)c(C)c3)C3CC3)c2)c(C(F)(F)F)n1 [Example 107, (S)—N-(Cyclopropyl(4-fluoro-3-methylphenyl)methyl)-3-((2-cyclopropylacetimidamido)methyl)-5-(1-ethyl-3-(trifluoromethyl)-1H-pyrazol-4-yl)benzamide] | 0.15 nM |  | 
5 | CCn1cc(-c2cc(CNC(=N)C3CCOC3)cc(C(=O)N[C@H](c3ccc(F)c(C)c3)C3CC3)c2)c(C(F)(F)F)n1 (stereo partly drawn) [Example 108, N—((S)-Cyclopropyl(4-fluoro-3-methylphenyl)methyl)-3-(1-ethyl-3-(trifluoromethyl)-1H-pyrazol-4-yl)-5-((tetrahydrofuran-3-carboximidamido)methyl)benzamide] | 2 nM |  | 
6 | CCn1cc(-c2cc(CNC(=N)C3(C)CC3)cc(C(=O)N[C@H](c3ccc(F)c(C)c3)C3CC3)c2)c(C(F)(F)F)n1 [Example 109, (S)—N-(Cyclopropyl(4-fluoro-3-methylphenyl)methyl)-3-(1-ethyl-3-(trifluoromethyl)-1H-pyrazol-4-yl)-5-((1-methylcyclopropane-1-carboximidamido)methyl)benzamide] | 0.13 nM |  | 
7 | O=C(NCc1cc(Cl)cc(Cl)c1)c1cc(Cl)cc(Cn2ccnc2)c1 [Example 110, 3-((1H-Imidazol-1-yl)methyl)-5-chloro-N-(3,5-dichlorobenzyl)benzamide] |  |  | Ki (WDR5 [1]; [3]): 33.7 nM
8 | COc1cc(Cn2ccnc2)cc(C(=O)NCc2ccc(Cl)c(C)c2)c1 [Example 113, 3-((1H-Imidazol-1-yl)methyl)-N-(4-chloro-3-methylbenzyl)-5-methoxybenzamide] |  |  | Ki (WDR5 [1]; [3]): 141 nM
9 | CC1(NC(=O)c2cc(Cn3ccnc3)cc(-c3ccc(F)cc3Cl)c2)CCCC1 [Example 138, 5-((1H-Imidazol-1-yl)methyl)-2′-chloro-4′-fluoro-N-(1-methylcyclopentyl)-[1,1′-biphenyl]-3-carboxamide] | 50 nM |  | 
10 | Cc1nc(F)ccc1-c1cc(Cn2ccnc2C2CC2)cc(C(=O)NCc2ccc(Cl)c(Cl)c2)c1 [Example 139, 3-((2-Cyclopropyl-1H-imidazol-1-yl)methyl)-N-(3,4-dichlorobenzyl)-5-(6-fluoro-2-methylpyridin-3-yl)benzamide] | 1.6 nM |  | 
11 | COc1cc(CN(C)C(=O)c2cc(Cn3ccnc3)cc(-c3ccc(F)nc3C)c2)cc(OC)c1 [Example 140, 3-((1H-Imidazol-1-yl)methyl)-N-(3,5-dimethoxybenzyl)-5-(6-fluoro-2-methylpyridin-3-yl)-N-methylbenzamide] | 95 nM |  | 
12 | O=C(NCc1ccc(Cl)c(Cl)c1)c1cc(Cn2ccnc2)cc(C(F)(F)F)c1 [Example 141, 3-((1H-Imidazol-1-yl)methyl)-N-(3,4-dichlorobenzyl)-5-(trifluoromethyl)benzamide] | 10 nM |  | 
13 | O=C(NCc1ccc(Cl)c(Cl)c1)c1cc(Cn2ccnc2)cc(OC2CCC2)c1 [Example 142, 3-((1H-Imidazol-1-yl)methyl)-5-cyclobutoxy-N-(3,4-dichlorobenzyl)benzamide] | 0.59 nM |  | 
14 | Cc1nccn1Cc1cc(OC2CCC2)cc(C(=O)NCc2ccc(Cl)c(Cl)c2)c1 [Example 143, 3-Cyclobutoxy-N-(3,4-dichlorobenzyl)-5-((2-methyl-1H-imidazol-1-yl)methyl)benzamide] | 0.43 nM |  | 
15 | Cc1ccnc(C(NC(=O)c2cc(Cn3ccnc3C)cc(N3CCOCC3)c2)C2CC2)c1 (centres unmarked) [Example 144, N-(cyclopropyl(4-methylpyridin-2-yl)methyl)-3-((2-methyl-1H-imidazol-1-yl)methyl)-5-morpholinobenzamide] | 4.77 nM |  | 
16 | COc1cc(CNC(=O)c2cc(Cn3ccnc3)cc(-c3ccc(=O)[nH]c3)c2)cc(OC)c1 [Example 145, 3-((1H-Imidazol-1-yl)methyl)-N-(3,5-dimethoxybenzyl)-5-(6-oxo-1,6-dihydropyridin-3-yl)benzamide] | 22 nM |  | 
17 | COc1ccnc(CNC(=O)c2cc(C)c(OC)c(Cn3ccnc3C)c2)c1 [Example 146, 4-Methoxy-N-((4-methoxypyridin-2-yl)methyl)-3-methyl-5-((2-methyl-1H-imidazol-1-yl)methyl)benzamide] | 500 nM |  | 
18 | Cc1nccn1Cc1cc(C(=O)NCc2ccc(Cl)c(Cl)c2)cc(-c2cccc(CO)c2)c1 [Example 147, N-(3,4-dichlorobenzyl)-3′-(hydroxymethyl)-5-((2-methyl-1H-imidazol-1-yl)methyl)-[1,1′-biphenyl]-3-carboxamide] | 0.31 nM |  | 
19 | COc1cc(OC)cc(C(C)NC(=O)c2cc(Cn3ccnc3C)cc(-c3cccc(CO)c3)n2)c1 (centres unmarked) [Example 157, N-(1-(3,5-dimethoxyphenyl)ethyl)-6-(3-(hydroxymethyl)phenyl)-4-((2-methyl-1H-imidazol-1-yl)methyl)picolinamide] | 27 nM |  | 
20 | COc1cc(OC)cc(C(C)NC(=O)c2cc(Cn3ccnc3C)cc(-c3ccc(F)cc3OC)n2)c1 (centres unmarked) [Example 158, N-(1-(3,5-dimethoxyphenyl)ethyl)-6-(4-fluoro-2-methoxyphenyl)-4-((2-methyl-1H-imidazol-1-yl)methyl)picolinamide] | 8 nM |  | 
21 | COc1cc(OC)cc(C(C)NC(=O)c2cc(Cn3ccnc3C)cc(-c3ccc(F)c(C(N)=O)c3)n2)c1 (centres unmarked) [Example 161, 6-(3-Carbamoyl-4-fluorophenyl)-N-(1-(3,5-dimethoxyphenyl)ethyl)-4-((2-methyl-1H-imidazol-1-yl)methyl)picolinamide] | > 33 nM |  | 
22 | COc1cc(OC)cc(C(C)NC(=O)c2cc(Cn3ccnc3C)cc(-c3ccc(F)c(CO)c3)n2)c1 (centres unmarked) [Example 163, N-(1-(3,5-dimethoxyphenyl)ethyl)-6-(4-fluoro-3-(hydroxymethyl)phenyl)-4-((2-methyl-1H-imidazol-1-yl)methyl)picolinamide] | > 33 nM |  | 

Row | Compound | Ki (WDR5 [2]; [4]) | Ki (WDR5 [2]) | further results
23 | COc1cc(F)ccc1-c1cc(Cn2ccnc2C)cc(C(=O)NCc2ccc(Cl)c(Cl)c2)n1 [Example 165, N-(3,4-Dichlorobenzyl)-6-(4-fluoro-2-methoxyphenyl)-4-((2-methyl-1H-imidazol-1-yl)methyl)picolinamide] | 11 nM |  | 
24 | COc1ccc(C(=O)NCc2ccc(Cl)c(Cl)c2)cc1CNC1=NCCN1 [Example B28] |  | 0.622 nM | 
25 | O=C(NCc1ccc(Cl)c(Cl)c1)c1cc(F)c(F)c(CNC2=NCCN2)c1 [Example B33] |  | 0.444 nM | 
26 | O=C(NCc1ccc(Cl)c(Cl)c1)c1cc(CNC2=NCCN2)ccc1F [Example B36, N-(3,4-dichlorobenzyl)-5-(((4,5-dihydro-1H-imidazol-2-yl)amino)methyl)-2-fluorobenzamide] |  | 0.917 nM | 
27 | Cc1cc(CNC(=O)c2ccc(F)c(CNC3=NCCN3)c2)ccc1Cl [Example B47] |  | 0.189 nM | 
28 | COc1cc(CNC(=O)c2cc(CNC3=NCCN3)cc(-c3ccc(F)nc3C)c2)cc(OC)c1 [Example B63] |  | 0.131 nM | 
29 | Cc1nc(F)ccc1-c1cc(CNC2=NCCN2)cc(C(=O)NCc2ccc(Cl)c(Cl)c2)c1 [Example B64] |  | 0.0213 nM | 
30 | COc1cc(CNC(=O)c2cc(CNC3=NCCN3)cc(-c3ccnc(C)c3)c2)cc(OC)c1 [Example B72] |  | 0.634 nM | 
31 | Cc1cc(-c2cc(CNC3=NCCN3)cc(C(=O)NCc3ccc(Cl)c(Cl)c3)c2)ccn1 [Example B74] |  | 0.0312 nM | 
32 | Cc1cc(-c2cc(CNC3=NCCN3)cc(C(=O)NCc3cc(Cl)cc(Cl)c3)c2)ccn1 [Example B81] |  | 0.033 nM | 
33 | Cc1cc(-c2cc(CNC3=NCCN3)cc(C(=O)NCc3ccc(Cl)c(C)c3)c2)ccn1 [Example B84] |  | 0.118 nM | 
34 | Cc1ccncc1-c1cc(CNC2=NCCN2)cc(C(=O)NCc2cc(Cl)cc(Cl)c2)c1 [Example B87] |  | 0.198 nM | 
35 | Cc1cc(C)cc(CNC(=O)c2cc(CNC3=NCCN3)cc(-c3ccnc(C)c3)c2)c1 [Example B90] |  | 0.115 nM | 
36 | Cc1ccncc1-c1cc(CNC2=NCCN2)cc(C(=O)NC(C2CC2)C2CC2)c1 [Example B93] |  | 0.759 nM | 
37 | Cc1cc(-c2cc(CNC3=NCCN3)cc(C(=O)NCc3ccc(Cl)c(Cl)c3)c2)cnc1F [Example B99] |  | 0.0875 nM | 
38 | COc1ccc(CNC(=O)c2cc(CNC3=NCCN3)cc(-c3cc(C)cnc3F)c2)cc1OC [Example B107] |  | 0.0965 nM | 
39 | COc1cc(CNC(=O)c2cc(CNC3=NCCN3)cc(-c3cc(C)cnc3F)c2)cc(OC)c1 [Example B109] |  | 0.0385 nM | 
40 | Cc1cc(-c2cc(CNC3=NCCN3)cc(C(=O)NCc3cc(Cl)ccn3)c2)cc(C)n1 [Example B111] |  | 0.0875 nM | 
41 | COc1ccnc(CNC(=O)c2cc(CNC3=NCCN3)cc(-c3cc(OC)ccc3OC)c2)c1 [Example B115] |  | 0.48 nM | 
42 | COc1ccnc(CNC(=O)c2cc(CNC3=NCCN3)cc(-c3cc(Cl)ccc3OC)c2)c1 [Example B116] |  | 0.106 nM | 
43 | O=C(NCc1ccc(Cl)c(Cl)c1)c1cc(CNC2=NCCN2)cc(-c2ccc(F)nc2F)n1 [Example C2] |  | 0.311 nM | 
44 | Cc1cc(F)ccc1-c1cc(CNC2=NCCC2)cc(C(=O)NCc2ccc(Cl)c(Cl)c2)n1 [Example C22] |  | 0.132 nM | 
